Data on 1 compound can be found in patent US9404115B2, “Coryneform bacterium transformant and process for producing phenol using the same” (priority 2010, dated 2016).

Test [1] deals with Corynebacterium glutamicum R. Particulars: reducing conditions (ORP −450 mV), 8% glucose, 33° C.
Method: Corynebacterium glutamicum R was applied to A agar medium and was left stand in the dark at 33° C. for 20 hours.
An inoculation loop of the Corynebacterium glutamicum R grown on a plate as above was inoculated into a test tube containing 10 mL of A liquid medium and was aerobically cultured with shaking at 33° C. for 15 hours.
The Corynebacterium glutamicum R grown in the above conditions was inoculated into a 2 L-conical flask containing 500 mL of A liquid medium and was aerobically cultured with shaking at 33° C. for 15 hours.
The bacterial cells cultured and proliferated as above were collected by centrifugation (5,000×g at 4° C. for 15 minutes). The obtained bacterial cells were suspended in BT (−urea) liquid medium (0.7% ammonium sulfate, 0.05% potassium dihydrogen phosphate, 0.05% dipotassium hydrogen phosphate, 0.05% magnesium sulfate heptahydrate, 0.0006% iron sulfate heptahydrate, 0.00042% manganese sulfate hydrate, 0.00002% biotin and 0.00002% thiamine hydrochloride) so that the concentration of the bacterial cell was 10% (w/v). […] During the reaction, the pH of the reaction mixture was kept at or above 7.0 through addition of 2.5N aqueous ammonia controlled by a pH controller (Type: DT-1023 made by Able).
In a further test the test system is Escherichia coli JM109. Particulars: aerobic, LB, 37° C., OD610. The method, then: (§1) A growth inhibition test in aerobic culture was performed to examine the influence of phenol on Corynebacterium glutamicum, Escherichia coli, and Pseudomonas putida. Pseudomonas putida S12, which was used for the test, is reported to be a solvent-resistant strain. In the report, disclosed is an unparalleled technology using the strain as a host in phenol production.
Escherichia coli JM109 was applied to LB agar medium (1% polypeptone, 0.5% yeast extract, 0.5% NaCl and 1.5% agar) and was left stand in the dark at 37° C. for 15 hours.
An inoculation loop of the Escherichia coli JM109 grown on a plate as above was inoculated into a test tube containing 10 mL of LB liquid medium (1% polypeptone, 0.5% yeast extract, and 0.5% NaCl), and aerobic culture was performed with shaking at 37° C. for 13 hours.
The Escherichia coli JM109 grown in the above conditions was inoculated into 100 mL of LB liquid medium in such a way that the initial bacterial cell concentration would be OD610=0.05, phenol was added at the same time in such a way that the final concentration would be 0, 0.16, or 0.20 mM, and aerobic culture was performed with shaking at 37° C. The growth of bacterial cells was determined by absorbance measurement at OD610.

A further test concerns Pseudomonas putida S12. Particulars: aerobic, LB (+glucose), 30° C., OD610. The method, then: as §1
(§2) Pseudomonas putida F1 and S12 were applied to LB agar medium (1% polypeptone, 0.5% yeast extract, 0.5% NaCl and 1.5% agar) and were left stand in the dark at 30° C. for 15 hours.
(§3) An inoculation loop of each of the Pseudomonas putida F1 and S12 grown on a plate as above was inoculated into a test tube containing 10 mL of LB (+glucose) liquid medium (1% polypeptone, 0.5% yeast extract, 0.5% NaCl and 0.4% glucose), and aerobic culture was performed with shaking at 30° C. for 13 hours.
(§4) The Pseudomonas putida F1 and S12 grown in the above conditions were each inoculated into 100 mL of LB (+glucose) liquid medium in such a way that the initial bacterial cell concentration would be OD610=0.05, phenol was added at the same time in such a way that the final concentration would be 0, 0.10, or 0.20 mM, and aerobic culture was performed with shaking at 30° C. The growth of bacterial cells was determined by absorbance measurement at OD610.

For another test, the system named is Pseudomonas putida F1. Conditions: aerobic, LB (+glucose), 30° C., OD610. On the procedure:
as §1, §2, §3, §4

Test [2] relates to Corynebacterium glutamicum R. Particulars: aerobic, A liquid medium, 33° C., OD610. The method, then:
as §1
Corynebacterium glutamicum R was applied to A agar medium (2 g of […], 7 g of (NH4)2SO4, 0.5 g of KH2PO4, 0.5 g of K2HPO4, 0.5 g of MgSO4.7H2O, 1 mL of 0.06% (w/v) Fe2SO4.7H2O+0.042% (w/v) MnSO4.2H2O, 1 mL of 0.02% (w/v) biotin solution, 2 mL of 0.01% (w/v) thiamin solution, 2 g of yeast extract, 7 g of vitamin assay casamino acid, 40 g of glucose, and 15 g of agar were suspended in 1 L of distilled water) and was left stand in the dark at 33° C. for 15 hours.
An inoculation loop of the Corynebacterium glutamicum R grown on a plate as above was inoculated into a test tube containing 10 mL of A liquid medium (2 g of (NH2)2CO, 7 g of (NH4)2SO4, 0.5 g of KH2PO4, 0.5 g of K2HPO4, 0.5 g of MgSO4.7H2O, 1 mL of 0.06% (w/v) Fe2SO4.7H2O+0.042% (w/v) MnSO4.2H2O, 1 mL of 0.02% (w/v) biotin solution, 2 mL of 0.01% (w/v) thiamin solution, 2 g of yeast extract, 7 g of vitamin assay casamino acid, and 40 g of glucose were suspended in 1 L of distilled water) and was aerobically cultured with shaking at 33° C. for 13 hours.
The Corynebacterium glutamicum R grown in the above conditions was inoculated into 100 mL of A liquid medium in such a way that the initial bacterial cell concentration would be OD610=0.05, phenol was added at the same time in such a way that the final concentration would be 0, 0.16, 0.2, 0.24, or 0.32 mM, and aerobic culture was performed with shaking at 33° C. The growth of bacterial cells was determined by absorbance measurement at OD610.

Read-outs that look alike come from different tables or passages of the source.

As to `Oc1ccccc1` [phenol], the figures for the “saccharide consumption by Corynebacterium glutamicum R” value in test [1] (0.24% phenol), in test [1] (0.38% phenol) and in test [1] (0.46% phenol) were “no influence of phenol was observed”, “saccharide consumption was observed” and “slightly observed”, respectively. Besides, the results for the “proliferation of Escherichia coli” value with Escherichia coli JM109 (0.16% phenol) and in the test with Escherichia coli JM109 (0.20% phenol) were “significantly affected” and “completely inhibited”, respectively. Moreover, the “proliferation of Pseudomonas putida S12” value in the test with Pseudomonas putida S12 (0.10% phenol) was “significantly affected”; with Pseudomonas putida S12 (0.20% phenol), “completely inhibited”. In addition, the “proliferation of Pseudomonas putida F1” value in the test with Pseudomonas putida F1 (0.10% phenol) was “significantly affected”; in the test on Pseudomonas putida F1 (0.20% phenol), “completely inhibited”. The “proliferation of Corynebacterium glutamicum” value was “hardly affected” in test [2] (0.16% phenol), “favorable growth” in test [2] (0.20% phenol) and “able to proliferate” in test [2] (0.24% phenol).
